# Results reported in patent US12416101B2, “Genetically-encoded macrocyclic peptide libraries bearing a pharmacophore” (THE GOVERNORS OF THE UNIVERSITY OF ALBERTA, priority 2018, dated 2025).
# Residues, ends and D or L forms follow the SMILES beside them.
# Tests used:
# Solubility in water = format: physicochemical
# phage = experiment: Toxicity of hydrazines to phage, plaque forming assay; set-up: species or system bacteriophage
# Procedure: In the reaction between phage diketone and hydrazine, some hydrazine derivatives cause toxicity to phage, leading to elimination of >99.999% of infective phage particles in less than 5 minutes (as determined by plaque forming assay). For example, treating phage with 2 mM phenyl hydrazine for 2 minutes decreased the number of infective particles from 10^5 to zero. The source and mechanism of toxicity was not obvious and was difficult to systematize: it depended on the concentration of hydrazine and its nature, as well as some sporadic factors (preparation of solution). Toxicity dependence on concentration of hydrazine was not linear. In many cases, hydrazine was lethal to phage eliminating all infective particles before the reaction was completed. […] Optimal location conditions between phage-diketone and hydrazine derivatives are in the presence of 1-2 mM metal chelator such as EDTA.
Compound,solubility in water (Solubility in water),"decrease in the number of infective particles (phage; 2 to 20 mM phenyl hydrazine in the presence of 1 to 2 mM EDTA, several hours)","number of infective particles after treatment (phage; phage treated with 2 mM phenyl hydrazine for 2 minutes, starting number 10^5, no chelator)"
CC(C)[C@H](NC(=O)[C@H](CS)NC(=O)[C@H](CCC(N)=O)NC(=O)[C@@H](N)CO)C(=O)N[C@@H](CCCNC(=N)N)C(=O)N[C@@H](CO)C(=O)N[C@@H](CS)C(=O)O [SQCVRSC] (H-SQCVRSC-OH; N-terminus and C-terminus assumed),high,,
NNc1ccccc1 [phenyl hydrazine],,did not show any significant decrease,zero
